{"source": "patent US10869940B2", "about": "“Targeted photoacoustic compounds, formulations, and uses thereof” (The Board of Trustees of the Leland Stanford Junior …, priority 2015, dated 2020)", "target": "T1, PSMA expressing PC3 PiP cells (Homo sapiens, UniProt Q04609)", "T1 construct": "expressed in transfected cells; host or cells: PC3 PIP cells", "T1 sequence (Q04609 whole entry)": "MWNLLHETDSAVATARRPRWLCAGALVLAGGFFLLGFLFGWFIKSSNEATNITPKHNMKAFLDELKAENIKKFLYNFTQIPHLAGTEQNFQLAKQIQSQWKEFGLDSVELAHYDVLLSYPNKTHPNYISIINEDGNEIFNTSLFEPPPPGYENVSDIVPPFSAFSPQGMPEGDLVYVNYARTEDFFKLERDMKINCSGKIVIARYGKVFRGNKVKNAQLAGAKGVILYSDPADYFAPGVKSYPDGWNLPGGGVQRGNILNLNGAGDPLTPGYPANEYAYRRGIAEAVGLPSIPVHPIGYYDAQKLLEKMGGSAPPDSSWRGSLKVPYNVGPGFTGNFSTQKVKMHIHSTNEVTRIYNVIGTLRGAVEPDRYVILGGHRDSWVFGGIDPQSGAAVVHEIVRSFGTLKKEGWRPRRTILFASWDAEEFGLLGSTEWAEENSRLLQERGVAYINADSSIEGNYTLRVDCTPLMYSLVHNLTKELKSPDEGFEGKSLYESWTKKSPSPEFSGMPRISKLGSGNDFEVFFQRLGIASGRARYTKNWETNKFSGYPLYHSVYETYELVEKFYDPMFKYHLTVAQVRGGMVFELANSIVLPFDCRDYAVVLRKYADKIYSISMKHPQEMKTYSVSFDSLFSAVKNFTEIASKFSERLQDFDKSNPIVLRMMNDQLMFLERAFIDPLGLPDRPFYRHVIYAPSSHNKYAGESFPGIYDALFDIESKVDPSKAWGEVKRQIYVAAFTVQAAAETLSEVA", "assay": "Binding of the PSMA targeting photoacoustic compound to PSMA-expressing PC3 PIP cells", "data": [{"smiles": "O=C(O)CCC(CP(=O)(O)O)C(=O)O", "note": "(stereo not shown) [2-PMPA, 2-(phosphonomethyl)pentane-1,5 dioic acid]", "values": [{"measurement": "blocking of binding to PC3 PIP cells by co-incubation with 2-PMPA", "result": "efficiently blocked"}]}]}
